# Key:
# Puccinia recondite = assay: Puccinia test (wheat)/curative; assay type: in vivo; conditions: curative, application rate 250 g/ha, evaluation 10 days after inoculation
# Protocol: Puccinia Test (Wheat)/Curative
# (§1) Solvent: 25 parts by weight of N,N-dimethylacetamide
# (§2) Emulsifier: 0.6 part by weight of alkylaryl polyglycol ether
# (§3) To produce a suitable preparation of active compound, 1 part by weight of active compound is mixed with the stated amounts of solvent and emulsifier, and the concentrate is diluted with water to the desired concentration.
# To test for curative activity, young plants are sprayed with a conidia suspension of Puccinia recondite. The plants remain in an incubation cabin at 20° C. and 100% relative atmospheric humidity for 48 hours. The plants are subsequently sprayed with the preparation of active compound at the stated application rate.
# The plants are placed in a greenhouse at a temperature of approximately 20° C. and a relative atmospheric humidity of approximately 80% to promote the development of rust pustules.
# (§4) Evaluation is carried out 10 days after the inoculation. 0% means an efficacy which corresponds to that of the control, whereas an efficacy of 100% means that no infection is observed.
# [1] = logP determination by HPLC (EEC Directive 79/831 Annex V. A8); assay type: physicochemical; conditions: HPLC gradient method, acetonitrile/0.1% aqueous phosphoric acid
# Protocol: The logP values are determined in accordance with EEC Directive 79/831 Annex V. A8 by HPLC (gradient method, acetonitrile/0.1% aqueous phosphoric acid).
# Plasmopara viticola = assay: Plasmopara test (grapevine)/protective; assay type: in vivo; conditions: Plasmopara viticola, 144 h, protective, application rate 100 g/ha, evaluation 6 days after inoculation, read-out: Efficacy in %
# Protocol: Plasmopara Test (Grapevine)/Protective
# (§5) Solvent: 47 parts by weight of acetone
# (§6) Emulsifier: 3 parts by weight of alkylaryl polyglycol ether
# as §3
# To test for protective activity, young plants are sprayed with the preparation of active compound at the stated application rate. After the spray coating has dried on, the plants are inoculated with an aqueous spore suspension of Plasmopara viticola and then remain in an incubation cabin at approximately 20° C. and 100% relative atmospheric humidity for 1 day. The plants are subsequently placed in a greenhouse at approximately 21° C. and approximately 90% relative atmospheric humidity for 5 days. The plants are then moistened and placed in an incubation cabin for 1 day.
# Evaluation is carried out 6 days after the inoculation. 0% means an efficacy which corresponds to that of the control, whereas an efficacy of 100% means that no infection is observed.
# Venturia inaequalis = assay: Venturia test (apple)/protective; assay type: in vivo; conditions: Venturia inaequalis, 288 h, protective, application rate 10 g/ha, evaluation 12 days after inoculation, read-out: Efficacy in %
# Protocol: Venturia Test (Apple)/Protective
# as §5, §6, §3
# To test for protective activity, young plants are sprayed with the preparation of active compound at the stated application rate. After the spray coating has dried on, the plants are inoculated with an aqueous conidia suspension of the causative organism of apple scab Venturia inaequalis and then remain in an incubation cabin at approximately 20° C. and 100% relative atmospheric humidity for 1 day.
# The plants are then placed in a greenhouse at approximately 21° C. and a relative atmospheric humidity of approximately 90%.
# Evaluation is carried out 12 days after the inoculation. 0% means an efficacy which corresponds to that of the control, whereas an efficacy of 100% means that no infection is observed.
# Puccinia recondita = assay: Puccinia test (wheat)/protective; assay type: in vivo; conditions: Puccinia recondita, 240 h, protective, application rate 250 g/ha, evaluation 10 days after inoculation, read-out: Efficacy in %
# Protocol: Puccinia Test (Wheat)/Protective
# as §1, §2, §3
# To test for protective activity, young plants are sprayed with the preparation of active compound at the stated application rate. After the spray coating has dried on, the plants are sprayed with a conidia suspension of Puccinia recondita. The plants remain in an incubation cabin at 20° C. and 100% relative atmospheric humidity for 48 hours.
# The plants are then placed in a greenhouse at a temperature of approximately 20° C. and a relative atmospheric humidity of 80% to promote the development of rust pustules.
# as §4
Structure (SMILES),chromatographic logP [1],melting point,Efficacy in % (Puccinia recondite),pest or weed control at 100 g/ha (Plasmopara viticola),pest or weed control at 10 g/ha (Venturia inaequalis),pest or weed control at 250 g/ha (Puccinia recondita)
CNC(=O)C(=NOCF)c1ccccc1Oc1ncnc(Oc2ccccc2Cl)c1F [drawing 98],–,–,100%,–,–,–
CNC(=O)/C(=N\OCF)c1ccccc1Oc1nc(-c2ccc(OC(F)(F)F)cc2)ns1 [drawing 104],–,–,100%,–,–,–
"COC(=O)C(=NOCF)c1ccccc1Oc1ncnc(Oc2ccccc2Cl)c1F [Example 1, methyl {2-[6-(2-chlorophenoxy)-5-fluoropyrimidin-4-yloxy]-phenyl}-fluoromethoxyimino-acetate]",–,153 to 155 °C,–,≥ 98%,≥ 99%,≥ 80%
CNC(=O)/C(=N\OCF)c1ccccc1Oc1ncnc(Oc2cccc(Cl)c2C)c1F [drawing 99],–,–,100%,–,–,–
CNC(=O)/C(=N\OCF)c1ccccc1Oc1ncnc(Oc2cccc(Cl)c2C)c1F [Example 4],3.5,–,100%,≥ 98%,≥ 99%,–
CNC(=O)/C(=N\OCF)c1ccccc1Oc1ncnc(Oc2ccccc2OC(F)F)c1F [Example 6],2.9,–,100%,≥ 98%,≥ 99%,≥ 80%
CNC(=O)/C(=N\OCF)c1ccccc1Oc1ncnc(Oc2ccccc2C#N)c1F [drawing 102],–,–,100%,–,–,–
CNC(=O)/C(=N\OCF)c1ccccc1Oc1ncnc(Oc2ccccc2Cl)c1F [drawing 105],–,–,100%,–,–,–
"CNC(=O)C(=NOCF)c1ccccc1Oc1ncnc(Oc2ccccc2Cl)c1F [Example 2, 2-{2-[6-(2-chlorophenoxy)-5-fluoropyrimidin-4-yloxy]-phenyl}-2-fluoromethoxyimino-N-methylacetamide]",–,128 to 129 °C,100%,≥ 98%,≥ 99%,≥ 80%
CNC(=O)/C(=N\OCF)c1ccccc1Oc1ncnc(Oc2ccccc2OC(F)F)c1F [drawing 100],–,–,100%,–,–,–
CNC(=O)/C(=N\OCF)c1ccccc1Oc1nc(-c2cccc(C(F)(F)F)c2)ns1 [drawing 103],–,–,100%,–,–,–
CNC(=O)C(NOCF)c1ccccc1Oc1ncnc(Oc2ccccc2[N+](=O)[O-])c1F (stereo not drawn) [drawing 101],–,–,100%,–,–,–

# Second part, led by results:
chromatographic logP [1],melting point,Structure (SMILES),Efficacy in % (Puccinia recondite),pest or weed control at 100 g/ha (Plasmopara viticola),pest or weed control at 10 g/ha (Venturia inaequalis),pest or weed control at 250 g/ha (Puccinia recondita)
3.6,–,CNC(=O)/C(=N\OCF)c1ccccc1Oc1nc(-c2cccc(C(F)(F)F)c2)ns1 [Example 28],100%,≥ 98%,≥ 99%,≥ 80%
2.8,–,CNC(=O)/C(=N\OCF)c1ccccc1Oc1ncnc(Oc2ccccc2C#N)c1F [Example 10],100%,≥ 98%,–,≥ 80%
3,–,CNC(=O)/C(=N\OCF)c1ccccc1Oc1ncnc(Oc2ccccc2C)c1F [Example 11],–,≥ 98%,≥ 99%,≥ 80%
3.7,–,CNC(=O)/C(=N\OCF)c1ccccc1Oc1nc(-c2ccc(C(F)(F)F)cc2)ns1 [Example 19],–,≥ 98%,≥ 99%,≥ 80%
3.8,–,CNC(=O)/C(=N\OCF)c1ccccc1Oc1nc(-c2ccc(OC(F)(F)F)cc2)ns1 [Example 22],100%,≥ 98%,≥ 99%,≥ 80%
